Data: patent US20150258059A1, “ANTIMICROBIAL AND RADIOPROTECTIVE COMPOUNDS” (BioDiem, Ltd, priority 2001, published 2015)
Read-outs that look alike come from different tables or passages of the source. Marks after values point to notes of the source that are not given here.

Key:
[1] = tested on: Acinetobacter B-677; experiment: Sensitivity of strains: suppression of growth; assay type: cell-based; conditions: Compound (1) 1.0%; antibiotics disc method
[2] = tested on: Bacillus subtilis; experiment: Stability of stock solutions on storage, potency by MIC/MBC; assay type: cell-based
[3] = tested on: E. faecalis-clinical isolate 1; experiment: microbe, parasite or virus in culture; assay type: cell-based
[4] = tested on: Klebsiella pneumoniae; experiment: NCCLS broth microdilution MIC/MBC; assay type: cell-based; conditions: for MIC: Klebsiella pneumoniae
[5] = tested on: Staphylococcus aureus B-674; experiment: Sensitivity of strains: suppression of growth; assay type: cell-based; conditions: Compound (1) 1.0%; antibiotics disc method
[6] = tested on: Bacteroides fragilis; experiment: NCCLS broth microdilution MIC/MBC; assay type: cell-based; conditions: for MIC: Bacteroides fragilis
[7] = tested on: Pseudomonas; experiment: Agar plug diffusion, zone of retardation; assay type: cell-based, Pseudonomas aeruginosa; conditions: plug impregnated at 0.5%
[8] = tested on: Geotrichum M-158; experiment: Sensitivity of pathogenic fungi; assay type: cell-based; conditions: Inoculation 10^5
[9] = tested on: Staphylococcus epidermidis BK-30; experiment: Sensitivity of strains: suppression of growth; assay type: cell-based; conditions: Compound (1) 1.0%; antibiotics disc method
[10] = tested on: Proteus mirabilis; experiment: NCCLS broth microdilution MIC/MBC; assay type: cell-based; conditions: for MIC: Proteus mirabilis
[11] = tested on: Proteus vulgaris; experiment: microbe, parasite or virus in culture; assay type: cell-based; conditions: for MIC: Proteus vulgaris
[12] = tested on: Epidermophyton floccosum; experiment: NCCLS broth macro-dilution MIC/MFC (RPMI); assay type: cell-based; conditions: Table 10, 7 day, 30° C.
[13] = tested on: Enterococcus faecalis; experiment: Rate of kill, viable counts; conditions: 512 μg/mL; at 9 h
[14] = tested on: Candida albicans B-45; experiment: Sensitivity of pathogenic fungi; assay type: cell-based; conditions: Inoculation 5 × 10^4
[15] = tested on: Shigella sonnei B-720; experiment: Agar diffusion assay; assay type: cell-based
[16] = tested on: Fusarium graminearum; experiment: microbe, parasite or virus in culture; assay type: cell-based
[17] = tested on: Salmonella paratyphi M-16469; experiment: Sensitivity of strains: suppression of growth; assay type: cell-based; conditions: Compound (1) 1.0%; antibiotics disc method
[18] = tested on: C. guillermondii RMIT 176; experiment: M38-P microdilution MIC/MFC; assay type: cell-based; conditions: Table 16, 24 h, 35° C.
[19] = tested on: Salmonella typhimurium; experiment: Agar plug diffusion, zone of retardation; conditions: plug impregnated at 0.5%
[20] = tested on: Proteus vulgaris RMIT; experiment: NCCLS broth microdilution MIC/MBC; assay type: cell-based; conditions: for MIC: Proteus vulgaris
[21] = tested on: C. hyointestinalis 54/4; experiment: MIC/MMC against clinical strains of Campylobacter spp.; conditions: Table 18; clinical strain isolated from humans
[22] = tested on: E. coli; experiment: MIC by solvent of formulation; conditions: for MIC: Escherichia coli
[23] = tested on: Trichophyton; experiment: Sensitivity of pathogenic fungi; assay type: cell-based; conditions: Inoculation 10^2
[24] = tested on: Clostridium perfringens; experiment: microbe, parasite or virus in culture; assay type: cell-based; conditions: 48 h
[25] = stock 512 μg/mL stored 4° C., 0 weeks
[26] = stock 512 μg/mL stored 4° C., 2 weeks
[27] = stock 512 μg/mL stored 4° C., 4 weeks
[28] = stock 512 μg/mL stored 4° C., 6 weeks
[29] = stock 512 μg/mL stored 4° C., 8 weeks
[30] = stock 512 μg/mL stored 4° C., 10 weeks
[31] = stock 512 μg/mL stored 4° C., 12 weeks
[32] = stock 512 μg/mL stored RT, 0 weeks
[33] = stock 512 μg/mL stored RT, 2 weeks
[34] = stock 512 μg/mL stored RT, 4 weeks
[35] = stock 512 μg/mL stored RT, 6 weeks
[36] = stock 512 μg/mL stored RT, 8 weeks
[37] = stock 512 μg/mL stored RT, 10 weeks
[38] = stock 512 μg/mL stored RT, 12 weeks
[39] = stock 512 μg/mL stored −20° C., 0 weeks
[40] = stock 512 μg/mL stored −20° C., 2 weeks
[41] = stock 512 μg/mL stored −20° C., 4 weeks
[42] = stock 512 μg/mL stored −20° C., 6 weeks
[43] = stock 512 μg/mL stored −20° C., 8 weeks
[44] = stock 512 μg/mL stored −20° C., 10 weeks
[45] = stock 512 μg/mL stored −20° C., 12 weeks

C/C(=C\c1ccc2c(c1)OCO2)[N+](=O)[O-] [Compound (1)]
30# mm: Diameter of zone of Growth inhibition ([15]; Concentration in disc 0.1%)
10^4: Number of microbes: Retardation ([8]; 0.1%)
> 512 µg/mL: MIC ([22]; 2.5% DMSO)
35# mm: Diameter of zone of Growth inhibition ([15]; Concentration in disc 1.0%)
8 µg/mL: MBC [2, 25] | MBC [2, 26] | MBC [2, 32] | MBC [2, 33] | MBC [2, 34] | MIC [2, 36] | MIC [2, 37] | MIC [2, 38] | MBC [2, 39] | MBC [2, 40] | MMC ([16]; Table 10, 7 day, 30° C.)
2 µg/mL: MMC [18] | MIC ([18]; read-out: MIC)
10^7: Number of microbes: Retardation ([23]; 0.1%) | Number of microbes: Retardation ([23]; 0.5%) | Number of microbes: Retardation ([23]; 2.0%)
64 to 256 µg/mL: 7-Day MIC Range ([11]; Range to Week 12, No Rising Trend)
16 µg/mL: MBC [2, 27] | MBC [2, 28] | MBC [2, 29] | MBC [2, 30] | MBC [2, 31] | MBC [2, 35] | MBC [2, 36] | MBC [2, 37] | MBC [2, 38] | MBC [2, 41] | MBC [2, 42] | MBC [2, 43] | MBC [2, 44] | MBC [2, 45] | MIC ([6]; Table 9, 48 h) | MIC ([6]; Table 17, 2 or 3 replicates) | MMC [12] | MIC ([24]; Clostridium perfringens)
39# mm: Diameter of zone of Growth inhibition ([15]; Concentration in disc 2.0%)
5 × 10^6: Number of microbes: Retardation ([14]; 0.1%) | Number of microbes: Retardation ([14]; 0.5%)
0.5 µg/mL: MIC ([12]; Epidermophyton floccosum, 168 h)
>512 µg/mL: MMC ([4]; Table 9, 35° C., 24 hours) | MMC ([4]; Table 17, 2 or 3 replicates) | MMC ([10]; Table 9, 35° C., 24 hours) | MMC ([10]; Table 17, 2 or 3 replicates)
256 µg/mL: MIC [10] | MIC ([10]; 24 h) | MMC ([20]; Table 9, 35° C., 24 hours)
128 µg/mL: MIC ([11]; after 12 weeks continuous exposure, read-out: Standard MIC Final) | MIC ([11]; before exposure, MHB, read-out: Standard MIC Initial) | MIC [20] | MIC ([20]; 24 h) | MMC ([20]; Table 17, 2 or 3 replicates) | MIC ([22]; formulated in ethanol (0.06% ETON))
2: MMC [21]
approximately neutral: pH (in 50% v./v. ethanol)
0: Size of zone of retardation of the growth [7] | Number of microbes: Growth ([8]; 0.1%) | Number of microbes: Growth ([8]; 0.5%) | Number of microbes: Growth ([8]; 2.0%) | Number of microbes: Growth ([14]; 0.1%) | Number of microbes: Growth ([14]; 0.5%) | Number of microbes: Growth ([14]; 2.0%) | Number of microbes: Growth ([23]; 0.1%) | Number of microbes: Growth ([23]; 0.5%) | Number of microbes: Growth ([23]; 2.0%)
very stable: stability of dilute solutions on storage ([2]; 12 weeks at 4° C. and −20° C.)
32 µg/mL: MMC [3] | MMC ([3]; 35° C., 24 hours) | MIC ([3]; Enterococcus faecalis, 35° C., 24 hours) | MMC ([6]; Table 9, 48 h) | MMC ([6]; Table 17, 2 or 3 replicates) | MMC ([24]; Table 9)
512 µg/mL: MIC ([4]; Table 9, 35° C., 24 hours) | MIC ([4]; Table 17, 2 or 3 replicates)
at least 8 times: times more active in ethanol than in DMSO [22]
7: Size of zone of retardation of the growth [19]
+: Suppression of Growth (+/−) [1] | Suppression of Growth (+/−) [5] | Suppression of Growth (+/−) [9] | Suppression of Growth (+/−) [17]
4 µg/mL: MIC [2, 25] | MIC [2, 26] | MIC [2, 27] | MIC [2, 28] | MIC [2, 29] | MIC [2, 30] | MIC [2, 31] | MIC [2, 32] | MIC [2, 33] | MIC [2, 34] | MIC [2, 35] | MIC [2, 39] | MIC [2, 40] | MIC [2, 41] | MIC [2, 42] | MIC [2, 43] | MIC [2, 44] | MIC [2, 45] | MIC ([16]; Fusarium graminearum, 168 h)
5 × 10^4: Number of microbes: Retardation ([14]; 2.0%)
10^5: Number of microbes: Retardation ([8]; 0.5%) | Number of microbes: Retardation ([8]; 2.0%)
0.6 at 9 h: Log reduction in viable count [13]
